According to ChEMBL document CHEMBL5113453, “Design, synthesis, and biological evaluation of a new series of pyrazole derivatives: Discovery of potent and selective JNK3 kinase inhibitors” (Bioorg Med Chem, 2022):

Columns and labels:
786-0 = assay: Antiproliferative activity against human 786-0 cells measured after 48 hrs by SRB assay; assay type: functional, cell-based
[1] = molecular target: T1, Mitogen-activated protein kinase 10 (Homo sapiens, UniProt P53779); assay: Inhibition of JNK3 (unknown origin)
CAKI-1 = assay: Antiproliferative activity against human CAKI-1 cells measured after 48 hrs by SRB assay; assay type: functional, cell-based
NCI-H226 = assay: Antiproliferative activity against human NCI-H226 cells measured after 48 hrs by SRB assay; assay type: functional, cell-based
SNB-75 = assay: Antiproliferative activity against human SNB-75 cells measured after 48 hrs by SRB assay; assay type: functional, cell-based
SW-620 = assay: Antiproliferative activity against human SW-620 cells measured after 48 hrs by SRB assay; assay type: functional, cell-based
SK-OV-3 = assay: Antiproliferative activity against human SK-OV-3 cells measured after 48 hrs by SRB assay; assay type: functional, cell-based
NCI-H522 = assay: Antiproliferative activity against human NCI-H522 cells measured after 48 hrs by SRB assay; assay type: functional, cell-based
SNB-19 = assay: Antiproliferative activity against human SNB-19 cells measured after 48 hrs by SRB assay; assay type: functional, cell-based
M14 = assay: Antiproliferative activity against human M14 cells measured after 48 hrs by SRB assay; assay type: functional, cell-based
Malme-3M = assay: Antiproliferative activity against human Malme-3M cells measured after 48 hrs by SRB assay; assay type: functional, cell-based
SF-268 = assay: Antiproliferative activity against human SF-268 cells measured after 48 hrs by SRB assay; assay type: functional, cell-based
OVCAR-5 = assay: Antiproliferative activity against human OVCAR-5 cells measured after 48 hrs by SRB assay; assay type: functional, cell-based
A498 = assay: Antiproliferative activity against human A498 cells measured after 48 hrs by SRB assay; assay type: functional, cell-based
KM12 = assay: Antiproliferative activity against human KM12 cells measured after 48 hrs by SRB assay; assay type: functional, cell-based
SK-MEL-28 = assay: Antiproliferative activity against human SK-MEL-28 cells measured after 48 hrs by SRB assay; assay type: functional, cell-based
K562 = assay: Antiproliferative activity against human K562 cells measured after 48 hrs by SRB assay; assay type: functional, cell-based
A549 = assay: Antiproliferative activity against human A549 cells measured after 48 hrs by SRB assay; assay type: functional, cell-based
BT-549 = assay: Antiproliferative activity against human BT-549 cells measured after 48 hrs by SRB assay; assay type: functional, cell-based
PC-3 = assay: Antiproliferative activity against human PC-3 cells measured after 48 hrs by SRB assay; assay type: functional, cell-based
MOLT-4 = assay: Antiproliferative activity against human MOLT-4 cells measured after 48 hrs by SRB assay; assay type: functional, cell-based
UACC-62 = assay: Antiproliferative activity against human UACC-62 cells measured after 48 hrs by SRB assay; assay type: functional, cell-based
RXF 393 = assay: Antiproliferative activity against human RXF 393 cells measured after 48 hrs by SRB assay; assay type: functional, cell-based
SN12C = assay: Antiproliferative activity against human SN12C cells measured after 48 hrs by SRB assay; assay type: functional, cell-based
NCI/ADR-RES = assay: Antiproliferative activity against human NCI-ADR-RES cells measured after 48 hrs by SRB assay; assay type: functional, cell-based
HL-60(TB) = assay: Antiproliferative activity against human HL-60(TB) cells measured after 48 hrs by SRB assay; assay type: functional, cell-based
OVCAR-8 = assay: Antiproliferative activity against human OVCAR-8 cells measured after 48 hrs by SRB assay; assay type: functional, cell-based
EKVX = assay: Antiproliferative activity against human EKVX cells measured after 48 hrs by SRB assay; assay type: functional, cell-based
RPMI-8226 = assay: Antiproliferative activity against human RPMI-8226 cells measured after 48 hrs by SRB assay; assay type: functional, cell-based
SR = assay: Antiproliferative activity against human SR cells measured after 48 hrs by SRB assay; assay type: functional, cell-based
[2] = molecular target: T1, Mitogen-activated protein kinase 10; assay: Inhibition of JNK3 (unknown origin) at 1 uM relative to control
OVCAR-3 = assay: Antiproliferative activity against human OVCAR-3 cells measured after 48 hrs by SRB assay; assay type: functional, cell-based
OVCAR-4 = assay: Antiproliferative activity against human OVCAR-4 cells measured after 48 hrs by SRB assay; assay type: functional, cell-based
WI-38 = assay: Antiproliferative activity against human WI-38 cells measured by MTT assay; assay type: functional, cell-based
MDA-MB-468 = assay: Antiproliferative activity against human MDA-MB-468 cells measured after 48 hrs by SRB assay; assay type: functional, cell-based
ACHN = assay: Antiproliferative activity against human ACHN cells measured after 48 hrs by SRB assay; assay type: functional, cell-based
NCI-H322M = assay: Antiproliferative activity against human NCI-H322M cells measured after 48 hrs by SRB assay; assay type: functional, cell-based
HCT-15 = assay: Antiproliferative activity against human HCT-15 cells measured after 48 hrs by SRB assay; assay type: functional, cell-based
DU-145 = assay: Antiproliferative activity against human DU-145 cells measured after 48 hrs by SRB assay; assay type: functional, cell-based
HCT-116 = assay: Antiproliferative activity against human HCT-116 cells measured after 48 hrs by SRB assay; assay type: functional, cell-based

T1 sequence (P53779 whole entry): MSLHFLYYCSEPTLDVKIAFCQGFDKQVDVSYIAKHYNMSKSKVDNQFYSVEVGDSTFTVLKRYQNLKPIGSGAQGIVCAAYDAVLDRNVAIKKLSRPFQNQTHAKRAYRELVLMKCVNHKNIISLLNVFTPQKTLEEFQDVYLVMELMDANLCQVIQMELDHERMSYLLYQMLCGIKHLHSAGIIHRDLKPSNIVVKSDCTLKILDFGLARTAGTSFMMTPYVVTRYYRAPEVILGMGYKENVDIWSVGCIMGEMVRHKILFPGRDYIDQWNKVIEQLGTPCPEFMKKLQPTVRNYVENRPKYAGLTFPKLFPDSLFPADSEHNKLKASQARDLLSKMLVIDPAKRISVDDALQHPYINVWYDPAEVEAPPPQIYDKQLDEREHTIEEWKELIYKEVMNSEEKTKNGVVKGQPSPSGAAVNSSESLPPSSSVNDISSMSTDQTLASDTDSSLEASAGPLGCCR

O=C(NCCCNc1cc(-c2cn(-c3ccccc3)nc2-c2cccc(O)c2)ccn1)Nc1ccc(F)cc1 was tested, and the IC50 (786-0; 786-0, 48 h) was 0.86 µM, the TGI (786-0; 786-0, time 48 hrs) was 3.61 µM and the IC50 [1] was 0.0974 µM. It also gave an IC50 (CAKI-1; CAKI-1, 48 h) of 2.04 µM, a TGI (CAKI-1; CAKI-1, time 48 hrs) of 10.7 µM and an IC50 (NCI-H226; NCI-H226, 48 h) of 3.39 µM. For the same compound, the TGI (NCI-H226; NCI-H226, time 48 hrs) was 8.91 µM, the IC50 (SNB-75; SNB-75, 48 h) was 0.54 µM and the TGI (SNB-75; SNB-75, time 48 hrs) was 3.18 µM. For the same compound, the IC50 (SW-620; SW-620, 48 h) was 3.04 µM, the TGI (SW-620; SW-620, time 48 hrs) was 6.73 µM and the IC50 (SK-OV-3; SK-OV-3, 48 h) was 3.12 µM. The TGI (SK-OV-3; SK-OV-3, time 48 hrs) was 10.8 µM, the IC50 (NCI-H522; NCI-H522, 48 h) was 4.03 µM and the TGI (NCI-H522; NCI-H522, time 48 hrs) was 9.49 µM. It also gave an IC50 (SNB-19; SNB-19, 48 h) of 3.29 µM, a TGI (SNB-19; SNB-19, time 48 hrs) of 9.75 µM and an IC50 (M14; M14, 48 h) of 1.57 µM. The TGI (M14; M14, time 48 hrs) was 5.85 µM, the IC50 (Malme-3M; 48 h) was 0.83 µM and the TGI (Malme-3M; time 48 hrs) was 3.42 µM. For the same compound, the IC50 (SF-268; SF-268, 48 h) was 2.61 µM, the TGI (SF-268; SF-268, time 48 hrs) was 11.2 µM and the IC50 (OVCAR-5; OVCAR-5, 48 h) was 3.37 µM. The TGI (OVCAR-5; OVCAR-5, time 48 hrs) was 9.12 µM, the IC50 (A498; A498, 48 h) was 1.21 µM and the TGI (A498; A498, time 48 hrs) was 4.96 µM. The IC50 (KM12; KM12, 48 h) was 2.61 µM, the TGI (KM12; KM12, time 48 hrs) was 5.79 µM and the IC50 (SK-MEL-28; SK-MEL-28, 48 h) was 2.54 µM. For the same compound, the TGI (SK-MEL-28; SK-MEL-28, time 48 hrs) was 5.64 µM, the IC50 (K562; K562, 48 h) was 0.81 µM and the TGI (K562; K562, time 48 hrs) was greater than 14.2 µM. It also gave an IC50 (A549; A549, 48 h) of 3.12 µM, a TGI (A549; A549, time 48 hrs) greater than 21.7 µM and an IC50 (BT-549; BT-549, 48 h) of 2.18 µM. The TGI (BT-549; BT-549, time 48 hrs) was 11.6 µM, the IC50 (PC-3; PC-3, 48 h) was 1.33 µM and the TGI (PC-3; PC-3, time 48 hrs) was 8.92 µM. For the same compound, the IC50 (MOLT-4; MOLT-4, 48 h) was 1.25 µM, the TGI (MOLT-4; MOLT-4, time 48 hrs) was 15.6 µM and the IC50 (UACC-62; UACC-62, 48 h) was 3.14 µM. It also gave a TGI (UACC-62; UACC-62, time 48 hrs) of 6.6 µM, an IC50 (RXF 393; RXF 393, 48 h) of 0.97 µM and a TGI (RXF 393; RXF 393, time 48 hrs) of 4.85 µM. The IC50 (SN12C; 48 h) was 2.79 µM, the TGI (SN12C; time 48 hrs) was 8.37 µM and the IC50 (NCI/ADR-RES; 48 h) was 3.51 µM. It also gave a TGI (NCI/ADR-RES; time 48 hrs) of 12.5 µM, an IC50 (HL-60(TB); HL-60, 48 h) of 2.15 µM and a TGI (HL-60(TB); HL-60, time 48 hrs) of 14.2 µM. The IC50 (OVCAR-8; OVCAR-8, 48 h) was 2.13 µM, the TGI (OVCAR-8; OVCAR-8, time 48 hrs) was 9.26 µM and the IC50 (EKVX; 48 h) was 2.74 µM. The TGI (EKVX; time 48 hrs) was 9.51 µM, the IC50 (RPMI-8226; RPMI-8226, 48 h) was 0.87 µM and the TGI (RPMI-8226; RPMI-8226, time 48 hrs) was 5.47 µM. The IC50 (SR; 48 h) was 1.51 µM, the TGI (SR; time 48 hrs) was 13.8 µM and the inhibition [2] was 94%. It also gave an IC50 (OVCAR-3; OVCAR-3, 48 h) of 2.16 µM, a TGI (OVCAR-3; OVCAR-3, time 48 hrs) of 8.69 µM and an IC50 (OVCAR-4; OVCAR-4, 48 h) of 1.46 µM. It also gave a TGI (OVCAR-4; OVCAR-4, time 48 hrs) of 8.21 µM, an IC50 (WI-38) of 16.8 µM and an IC50 (MDA-MB-468; MDA-MB-468, 48 h) of 1.18 µM. The TGI (MDA-MB-468; MDA-MB-468, time 48 hrs) was 4.66 µM, the IC50 (ACHN; 48 h) was 3.16 µM and the TGI (ACHN; time 48 hrs) was 14.2 µM. For the same compound, the IC50 (NCI-H322M; 48 h) was 3.7 µM, the TGI (NCI-H322M; time 48 hrs) was 12.4 µM and the IC50 (HCT-15; HCT-15, 48 h) was 0.94 µM. The TGI (HCT-15; HCT-15, time 48 hrs) was 4.04 µM, the IC50 (DU-145; DU-145, 48 h) was 4.22 µM and the TGI (DU-145; DU-145, time 48 hrs) was 19.3 µM. For the same compound, the IC50 (HCT-116; HCT-116, 48 h) was 1.62 µM and the TGI (HCT-116; HCT-116, time 48 hrs) was 5.82 µM.
